Measurements published in BindingDB's records for patent US20230348421 (Geneora Pharma (Shijiazhuang) Co., 2023).

Molecular target: hERG (Potassium voltage-gated channel subfamily H member 2) (Homo sapiens, UniProt Q12809)
Test: Electrophysiological Assay
Conditions: CHO cells stably expressing hERG potassium channels
Experimental: CHO (Chinese Hamster Ovary) cells stably expressing hERG potassium channels were taken, and hERG potassium channel currents were recorded at room temperature by means of a whole-cell patch-clamp technique. A glass microelectrode was formed by pulling a glass electrode blank (BF150-86-10, Sutter) with a glass microelectrode puller. The tip resistance was about 2-5 MΩ after perfusion of a pippette solution. The glass microelectrode could be connected to a patch clamp amplifier by inserting the glass microelectrode into an amplifier probe. Clamping voltages and data recording were controlled and recorded by a computer with pClamp 10 software, with a sampling frequency of 10 kHz and a filtering frequency of 2 kHz. After the whole-cell recording was obtained, the cells were clamped at −80 mV, and the step voltage evoking hERG potassium current (I hERG) was changed from −80 mV to +20 mV by giving a 2 s depolarization voltage and then repolarized to −50 mV for 1 s, and returned to −80 mV. Such voltage stimulation was given every 10 s, and the administration process was started after it was determined that the hERG potassium currents were stable (1 min). The compound at each test concentration was given at least 1 min, and at least 2 cells (n≥2) were tested for each concentration.

Chain of hERG (Potassium voltage-gated channel subfamily H member 2) (Q12809 whole entry): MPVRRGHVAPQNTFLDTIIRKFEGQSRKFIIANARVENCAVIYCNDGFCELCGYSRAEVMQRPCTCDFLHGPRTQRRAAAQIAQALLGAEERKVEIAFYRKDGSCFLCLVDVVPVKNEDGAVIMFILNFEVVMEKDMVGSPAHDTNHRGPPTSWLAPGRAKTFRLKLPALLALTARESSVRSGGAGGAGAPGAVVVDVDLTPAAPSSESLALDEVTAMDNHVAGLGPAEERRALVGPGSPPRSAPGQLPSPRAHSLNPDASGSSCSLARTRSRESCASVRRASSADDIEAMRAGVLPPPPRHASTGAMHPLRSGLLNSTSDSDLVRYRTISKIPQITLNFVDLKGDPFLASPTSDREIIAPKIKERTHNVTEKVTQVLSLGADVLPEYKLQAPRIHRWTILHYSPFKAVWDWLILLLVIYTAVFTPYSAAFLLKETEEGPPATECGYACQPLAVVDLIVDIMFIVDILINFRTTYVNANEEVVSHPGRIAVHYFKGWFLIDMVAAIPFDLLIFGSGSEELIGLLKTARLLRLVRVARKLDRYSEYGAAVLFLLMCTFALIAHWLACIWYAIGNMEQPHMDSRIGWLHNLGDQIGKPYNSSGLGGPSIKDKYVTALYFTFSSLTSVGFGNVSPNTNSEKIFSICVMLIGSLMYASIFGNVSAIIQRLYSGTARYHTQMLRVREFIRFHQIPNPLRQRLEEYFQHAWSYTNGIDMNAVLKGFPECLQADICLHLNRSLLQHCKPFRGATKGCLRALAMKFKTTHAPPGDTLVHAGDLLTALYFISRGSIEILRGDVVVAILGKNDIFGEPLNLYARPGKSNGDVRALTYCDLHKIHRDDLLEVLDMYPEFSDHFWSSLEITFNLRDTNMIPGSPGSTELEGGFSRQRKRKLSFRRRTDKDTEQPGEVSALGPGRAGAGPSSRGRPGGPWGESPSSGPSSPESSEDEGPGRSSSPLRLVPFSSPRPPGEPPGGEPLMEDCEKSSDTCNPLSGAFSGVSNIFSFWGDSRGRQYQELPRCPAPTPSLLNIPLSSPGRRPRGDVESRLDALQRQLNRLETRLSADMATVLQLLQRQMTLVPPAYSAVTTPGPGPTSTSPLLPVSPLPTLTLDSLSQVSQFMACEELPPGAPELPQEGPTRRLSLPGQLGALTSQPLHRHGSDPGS

Structure (SMILES): CN1CCC(N(Cc2ccc(F)cn2)C(=O)NCc2ccc3c(c2)CC(C(F)(F)F)O3)CC1 (stereo unspecified) [US20230348421, Compound 89]
- IC50: 2050 nM
